Data from US9274101B2 (BIOLOG, Inc., priority 2001, dated 2016).

Assays:
Format in all cases: cell-based, human
[1] = tested on: HL-60 cells; assay: HL-60 responses to selected compounds at a range of concentrations
Description: In this Example, methods for testing unattached cells for their ability to use various concentrations of selected carbon sources are described. The carbon sources used in this Example were identified by the methods disclosed in Example 27. Similarly, HL-60 cells were cultured as described in Example 27.
After washing, HL-60 cells were resuspended in DME-R. An aliquot of the cell suspension was counted by trypan blue exclusion and the cell density was adjusted to 6.67×10^5/mL. Fifty μL of DME-R were added to each well of the appropriate number of half area, 96-well plates, followed by 23 μL of the appropriate dilution of each test energy source. Stocks of 133 mM of each test chemical were prepared in tissue culture grade water, sterile filtered, and dilutions were prepared in a master plate so that, upon dilution in a total volume of 150 μL, the final concentrations would be 0.033 to 20 mM. Negative control wells received 23 μL of tissue culture grade water. The cells were plated at a volume of 75 μL/well, giving a final cell density of 5×10^4/well. For each plate containing energy sources and cells, a second, control plate containing only energy sources was prepared. Plates were incubated at 5% CO2, 90-100% humidity, and 37° C. for 24 hours prior to addition of the MTS/MPMS colorometric reagent (7.5 μL/well). The color formed in each well after an additional 24 hour incubation period, was measured on a plate reader at 490 nm with a reference wavelength of 650 nm. OD values from the control plate were subtracted from the OD values obtained with cells prior to normalizing the data to % negative control (cells without added energy source).

[2] = tested on: HepG2 cells; assay: HepG2 cells on flat bottom plastic wells, energy sources at a range of concentrations
Description: In this Example, methods for testing adherent cells for their ability to use multiple carbon sources are described. The human hepatocellular carcinoma cell line known as HepG2 (Knowles et al., Science, 209:497-499 [1980]) was chosen for this experiment. However, this application is not intended to be limited to the use of HepG2 cells, hepatocytes, carcinoma cells or even human cells.
HepG2 cells were grown in Falcon tissue culture flasks with vented tops. The culture medium used was Minimal Essential medium (MEM, Invitrogen 11095) with 1 g/L glucose, 2 mM L-glutamine, 2.2 g/L sodium bicarbonate, 10 mg/L phenol red, and supplemented with 0.1 mM Nonessential Amino Acids, 1 mM sodium pyruvate, 50 U/mL penicillin, 50 μg/mL streptomycin, and 10% (v/v) heat inactivated fetal bovine serum (HI FBS, Invitrogen 16140). The cells were seeded at 2×10^4/cm^2 and used 3 days after initiation of culture. During all incubations, the cells were kept in an atmosphere of 5% CO2, 90-100% humidity, and 37° C. Cells were harvested by trypsinization for 3 minutes in 0.25% trypsin-1 mM EDTA and resuspended in an equal volume of culture medium. A viable cell count was obtained by trypan blue exclusion and an appropriate volume of the cell suspension (to have 33% more viable cells than was sufficient for the experiment) was placed in a polypropylene centrifuge tube. Cells were pelleted by centrifugation at 350×g for 10 minutes at room temperature, resuspended in Dulbecco's Phosphate Buffered Saline (D-PBS, Invitrogen 14040) and centrifuged a second time. Cells were then resuspended to two-thirds the final volume needed in Dulbecco' ? s Modified Eagle's Medium (DME, Sigma D5030) containing 10% HI FBS and penicillin-streptomycin but without glucose, L-glutamine, sodium pyruvate, and phenol red. An aliquot was counted by trypan blue exclusion and the cell density was adjusted to 1.28×10^5/mL. Cells were plated in 100 μL/well in wells of standard, 96-well plates (4×10^4 cells/cm^2) and allowed to adhere overnight prior to addition of test chemicals.
For assay, the culture medium was aspirated, the wells were washed once with D-PBS and 170 μL of DME were added to each well, followed by 30 μL of the appropriate dilution of each test energy source. Stocks of 133 mM of each test chemical were prepared in tissue culture grade water, sterile filtered, and dilutions were prepared in a master plate so that, upon dilution into a regular 96-well MICROPLATE a total well volume of 200 μL, the final concentrations would be 0.033 to 20 mM. Negative control wells received 30 μL of tissue culture grade water. For each plate containing energy sources and cells, a second, control plate containing only energy sources was prepared. Plates were incubated at 5% CO2, 90-100% humidity, and 37° C. for 48 to 72 hours prior to addition of the MTS/PMS colorometric reagent (10 μL/well). The color formed in each well 4-24 hours after addition of the calorimetric reagent, was measured with a plate reader at 490 nm with a reference wavelength of 650 nm. OD values from the control plate were subtracted from the OD values obtained with cells prior to normalizing the data to % negative control (cells without added energy source).

[3] = tested on: Undifferentiated HL-60 cells; assay: Energy use by undifferentiated HL-60 cells
[4] = tested on: HL-60 cells; assay: Effect of 10 mM citric acid on HL-60 energy utilization; conditions: negative control without energy sources and without citric acid

O=C1O[C@@H]([C@H](O)CO)[C@H](O)[C@H]1O [D-gal acid g-lactone]
HL-60 Cell Responses to Selected Compounds from PM1 and PM2 ([1]; Conc. 0.03 mM): 128.3 % of negative control
HL-60 Cell Responses to Selected Compounds from PM1 and PM2 ([1]; Conc. 0.10 mM): 128.7 % of negative control
HL-60 Cell Responses to Selected Compounds from PM1 and PM2 ([1]; Conc. 0.33 mM): 129.3 % of negative control
HL-60 Cell Responses to Selected Compounds from PM1 and PM2 ([1]; Conc. 1.00 mM): 141.4 % of negative control
HL-60 Cell Responses to Selected Compounds from PM1 and PM2 ([1]; Conc. 3.3 mM): 142.2 % of negative control
HL-60 Cell Responses to Selected Compounds from PM1 and PM2 ([1]; Conc. 10 mM): 127.1 % of negative control
HL-60 Cell Responses to Selected Compounds from PM1 and PM2 ([1]; Conc. 15 mM): 122.2 % of negative control
HL-60 Cell Responses to Selected Compounds from PM1 and PM2 ([1]; Conc. 20 mM): 93.9 % of negative control
HepG2 Cells Responses After 72 hours in Culture and a 4 hour Color Development Period ([2]; Conc. 0.03 mM): 111.3 % of negative control
HepG2 Cells Responses After 72 hours in Culture and a 4 hour Color Development Period ([2]; Conc. 0.10 mM): 142.3 % of negative control
HepG2 Cells Responses After 72 hours in Culture and a 4 hour Color Development Period ([2]; Conc. 0.33 mM): 164.7 % of negative control
HepG2 Cells Responses After 72 hours in Culture and a 4 hour Color Development Period ([2]; Conc. 1.00 mM): 162.9 % of negative control
HepG2 Cells Responses After 72 hours in Culture and a 4 hour Color Development Period ([2]; Conc. 3.3 mM): 157.3 % of negative control
HepG2 Cells Responses After 72 hours in Culture and a 4 hour Color Development Period ([2]; Conc. 10 mM): 178.4 % of negative control
HepG2 Cells Responses After 72 hours in Culture and a 4 hour Color Development Period ([2]; Conc. 15 mM): 239.3 % of negative control
HepG2 Cells Responses After 72 hours in Culture and a 4 hour Color Development Period ([2]; Conc. 20 mM): 207.6 % of negative control
Energy Use by Undifferentiated HL-60 Cells ([3]; Conc. 0.03 mM): 122.7 % of negative control
Energy Use by Undifferentiated HL-60 Cells ([3]; Conc. 0.10 mM): 127.4 % of negative control
Energy Use by Undifferentiated HL-60 Cells ([3]; Conc. 0.33 mM): 125.3 % of negative control
Energy Use by Undifferentiated HL-60 Cells ([3]; Conc. 1.00 mM): 133.2 % of negative control
Energy Use by Undifferentiated HL-60 Cells ([3]; Conc. 3.3 mM): 152.6 % of negative control
Energy Use by Undifferentiated HL-60 Cells ([3]; Conc. 10 mM): 136.7 % of negative control
Energy Use by Undifferentiated HL-60 Cells ([3]; Conc. 15 mM): 147.5 % of negative control
Energy Use by Undifferentiated HL-60 Cells ([3]; Conc. 20 mM): 125.0 % of negative control
Effect of 10 mM Citric Acid on HL-60 Energy Utilization ([4]; energy source 0.03 mM with 10 mM citric acid): 9.5 % of negative control
Effect of 10 mM Citric Acid on HL-60 Energy Utilization ([4]; energy source 0.10 mM with 10 mM citric acid): 20.9 % of negative control
Effect of 10 mM Citric Acid on HL-60 Energy Utilization ([4]; energy source 0.33 mM with 10 mM citric acid): 35.7 % of negative control
Effect of 10 mM Citric Acid on HL-60 Energy Utilization ([4]; energy source 1.00 mM with 10 mM citric acid): 63.3 % of negative control
Effect of 10 mM Citric Acid on HL-60 Energy Utilization ([4]; energy source 3.3 mM with 10 mM citric acid): 162.8 % of negative control
Effect of 10 mM Citric Acid on HL-60 Energy Utilization ([4]; energy source 10 mM with 10 mM citric acid): 151.5 % of negative control
Effect of 10 mM Citric Acid on HL-60 Energy Utilization ([4]; energy source 15 mM with 10 mM citric acid): 126.5 % of negative control
Effect of 10 mM Citric Acid on HL-60 Energy Utilization ([4]; energy source 20 mM with 10 mM citric acid): 115.7 % of negative control

N[C@@H](Cc1c[nH]cn1)C(=O)O [L-histidine]
activity at 30 µM ([1]; Homo sapiens, HL-60, Conc. 0.03 mM, read-out: HL-60 Cell Responses to Selected Compounds from PM1 and PM2): 123%
activity at 100 µM ([1]; Homo sapiens, HL-60, Conc. 0.10 mM, read-out: HL-60 Cell Responses to Selected Compounds from PM1 and PM2): 121%
activity at 330 µM ([1]; Homo sapiens, HL-60, Conc. 0.33 mM, read-out: HL-60 Cell Responses to Selected Compounds from PM1 and PM2): 128%
activity at 1000 µM ([1]; Homo sapiens, HL-60, Conc. 1.00 mM, read-out: HL-60 Cell Responses to Selected Compounds from PM1 and PM2): 135%
activity at 3300 µM ([1]; Homo sapiens, HL-60, Conc. 3.3 mM, read-out: HL-60 Cell Responses to Selected Compounds from PM1 and PM2): 146%
activity at 10000 µM ([1]; Homo sapiens, HL-60, Conc. 10 mM, read-out: HL-60 Cell Responses to Selected Compounds from PM1 and PM2): 120%
activity at 15000 µM ([1]; Homo sapiens, HL-60, Conc. 15 mM, read-out: HL-60 Cell Responses to Selected Compounds from PM1 and PM2): 123%
activity at 20000 µM ([1]; Homo sapiens, HL-60, Conc. 20 mM, read-out: HL-60 Cell Responses to Selected Compounds from PM1 and PM2): 95%
activity at 30 µM ([2]; Homo sapiens, HepG2, 72 h, Conc. 0.03 mM, read-out: HepG2 Cells Responses After 72 hours in Culture and a 4 hour Color Development Period): 125%
activity at 100 µM ([2]; Homo sapiens, HepG2, 72 h, Conc. 0.10 mM, read-out: HepG2 Cells Responses After 72 hours in Culture and a 4 hour Color Development Period): 142%
activity at 330 µM ([2]; Homo sapiens, HepG2, 72 h, Conc. 0.33 mM, read-out: HepG2 Cells Responses After 72 hours in Culture and a 4 hour Color Development Period): 173%
activity at 1000 µM ([2]; Homo sapiens, HepG2, 72 h, Conc. 1.00 mM, read-out: HepG2 Cells Responses After 72 hours in Culture and a 4 hour Color Development Period): 148%
activity at 3300 µM ([2]; Homo sapiens, HepG2, 72 h, Conc. 3.3 mM, read-out: HepG2 Cells Responses After 72 hours in Culture and a 4 hour Color Development Period): 180%
activity at 10000 µM ([2]; Homo sapiens, HepG2, 72 h, Conc. 10 mM, read-out: HepG2 Cells Responses After 72 hours in Culture and a 4 hour Color Development Period): 210%
activity at 15000 µM ([2]; Homo sapiens, HepG2, 72 h, Conc. 15 mM, read-out: HepG2 Cells Responses After 72 hours in Culture and a 4 hour Color Development Period): 195%
activity at 20000 µM ([2]; Homo sapiens, HepG2, 72 h, Conc. 20 mM, read-out: HepG2 Cells Responses After 72 hours in Culture and a 4 hour Color Development Period): 72.1%
activity at 30 µM ([3]; Homo sapiens, HL-60, 24 h, Conc. 0.03 mM, read-out: Energy Use by Undifferentiated HL-60 Cells): 119%
activity at 100 µM ([3]; Homo sapiens, HL-60, 24 h, Conc. 0.10 mM, read-out: Energy Use by Undifferentiated HL-60 Cells): 117%
activity at 330 µM ([3]; Homo sapiens, HL-60, 24 h, Conc. 0.33 mM, read-out: Energy Use by Undifferentiated HL-60 Cells): 105%
activity at 1000 µM ([3]; Homo sapiens, HL-60, 24 h, Conc. 1.00 mM, read-out: Energy Use by Undifferentiated HL-60 Cells): 118%
activity at 3300 µM ([3]; Homo sapiens, HL-60, 24 h, Conc. 3.3 mM, read-out: Energy Use by Undifferentiated HL-60 Cells): 162%
activity at 10000 µM ([3]; Homo sapiens, HL-60, 24 h, Conc. 10 mM, read-out: Energy Use by Undifferentiated HL-60 Cells): 144%
activity at 15000 µM ([3]; Homo sapiens, HL-60, 24 h, Conc. 15 mM, read-out: Energy Use by Undifferentiated HL-60 Cells): 149%
activity at 20000 µM ([3]; Homo sapiens, HL-60, 24 h, Conc. 20 mM, read-out: Energy Use by Undifferentiated HL-60 Cells): 104%
